Data on 21 molecules can be found in patent US12410164B2, “Heterocyclic compounds and medical use thereof” (FONDAZIONE TELETHON, priority 2018, dated 2025).

F508del-CFTR, sequence (P13569 with tags, fused parts or gaps DEL508-508): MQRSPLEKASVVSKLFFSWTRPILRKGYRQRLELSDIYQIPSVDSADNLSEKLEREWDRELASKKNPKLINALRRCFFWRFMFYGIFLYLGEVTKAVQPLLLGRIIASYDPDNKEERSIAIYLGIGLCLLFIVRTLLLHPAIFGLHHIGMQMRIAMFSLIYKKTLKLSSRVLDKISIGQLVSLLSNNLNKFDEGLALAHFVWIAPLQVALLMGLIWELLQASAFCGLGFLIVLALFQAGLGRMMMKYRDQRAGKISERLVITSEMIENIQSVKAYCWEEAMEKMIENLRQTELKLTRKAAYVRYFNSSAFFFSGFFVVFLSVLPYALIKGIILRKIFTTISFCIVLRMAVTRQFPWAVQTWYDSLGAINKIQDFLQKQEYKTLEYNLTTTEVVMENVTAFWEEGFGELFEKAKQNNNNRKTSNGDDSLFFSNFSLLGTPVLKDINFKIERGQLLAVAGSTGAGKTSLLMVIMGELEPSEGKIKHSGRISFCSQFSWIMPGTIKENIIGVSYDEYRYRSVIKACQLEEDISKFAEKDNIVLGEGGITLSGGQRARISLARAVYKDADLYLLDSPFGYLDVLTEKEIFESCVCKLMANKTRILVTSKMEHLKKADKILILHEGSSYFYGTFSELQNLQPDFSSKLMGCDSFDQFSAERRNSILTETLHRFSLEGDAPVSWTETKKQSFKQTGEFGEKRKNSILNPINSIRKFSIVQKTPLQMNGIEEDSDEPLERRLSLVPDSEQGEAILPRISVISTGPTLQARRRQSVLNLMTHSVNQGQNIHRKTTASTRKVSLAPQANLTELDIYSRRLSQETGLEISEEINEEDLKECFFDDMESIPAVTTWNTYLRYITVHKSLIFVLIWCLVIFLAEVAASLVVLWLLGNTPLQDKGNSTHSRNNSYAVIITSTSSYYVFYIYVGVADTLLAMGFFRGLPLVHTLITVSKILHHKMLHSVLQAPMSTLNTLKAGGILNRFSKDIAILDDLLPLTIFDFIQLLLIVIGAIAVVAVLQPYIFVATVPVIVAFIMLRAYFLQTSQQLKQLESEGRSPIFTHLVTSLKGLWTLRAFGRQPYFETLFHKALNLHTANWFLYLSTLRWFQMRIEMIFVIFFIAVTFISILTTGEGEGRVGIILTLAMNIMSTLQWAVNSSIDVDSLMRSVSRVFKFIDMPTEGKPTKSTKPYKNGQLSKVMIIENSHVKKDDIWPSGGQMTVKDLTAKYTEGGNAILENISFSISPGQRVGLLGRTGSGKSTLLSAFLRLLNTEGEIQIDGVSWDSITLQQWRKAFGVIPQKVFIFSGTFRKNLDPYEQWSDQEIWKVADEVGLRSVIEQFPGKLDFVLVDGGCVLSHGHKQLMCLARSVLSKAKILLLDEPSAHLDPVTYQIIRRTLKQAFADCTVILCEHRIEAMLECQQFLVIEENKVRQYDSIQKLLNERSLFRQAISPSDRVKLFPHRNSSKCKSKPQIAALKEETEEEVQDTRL

The first test concerns the target F508del-CFTR (Homo sapiens, UniProt P13569, DEL508-508). The test is described as follows: HS-YFP kinetic fluorescence (iodide quenching rate) assay in CFBE41o− cells. In kind it is cell-based. Also noted: expressed in transfected cells; host or cells: CFBE41o- cells with expression of F508del-CFTR and HS-YFP (generated as in Sondo et al. 2011). Conditions: Table 1; compound at 10 μM plus VX-809; (QRTOT − QRVX)/QRVX, HS-YFP assay. The method, then:
CFBE41o- cells, with expression of F508del-CFTR and halogen-sensitive fluorescent protein, were generated as previously described (Sondo E, et al. Am J Physiol. 2011, 301, […]-[…]). For the test, the cells were seeded in 96-well microplates using a culture medium consisting of DMEM and Ham's F12 (1:1) supplemented with 10% foetal bovine serum. After 24 hours from seeding, the cells were treated for another 24 hours with the test compounds dissolved in the culture medium at the desired concentrations. As a negative control, the solvent of the compounds (dimethyl sulfoxide, DMSO) dissolved in the medium with the same dilution ratio (final percentage of DMSO:0.1-0.2%) was used. As a positive control, the corrector VX-809 (Selleck Chemicals, […]) was used at a concentration of 1 μM. After treatment, the medium with the compounds was removed and the cells were stimulated with forskolin (Sigma-Aldrich, F6886) 20 μM plus genistein (Sigma-Aldrich, G6649) 50 μM (in 60 μl of PBS saline) to maximally activate the CFTR channels present in the membrane. In a microplate reader (FLUOstar-Omega, BMG) the fluorescence of the cells in each well was read for 14 seconds, with an injection of 165 μl of a iodide-enriched saline (modified PBS where NaCl, 137 mM, has been replaced with the same concentration of NaI). The iodide transport activity in each well was evaluated by subtraction of the background fluorescence (measured in a well without cells), subsequent normalization with respect to the initial fluorescence and finally by interpolation of the fluorescence quenching phase with an exponential function that allows the derivation of the maximum slope (quenching rate, QR). The activity of the synthesized compounds was initially evaluated on the CFBE41o- cell line with expression of the mutated F508del-CFTR protein described above (Sondo E, et al. Am J Physiol. 2011, 301, […]-[…]). For this purpose, a functional assay based on the fluorescent YFP protein sensitive to halides, HS-YFP, was used (Galietta L J, et al. J Biol Chem. 2001, 276, 19723-19728). The fluorescence of the HS-YFP protein is turned off by iodide. Therefore, if exposed to a solution containing iodide, cells with HS-YFP expression show a quenching speed of the fluorescence which depends on the presence and activity of anionic channels. Under control conditions, the mutated CFTR protein presents a serious defect of stability and maturation, so it remains trapped in the endoplasmic reticulum not reaching the cell surface in enough quantity. In the HS-YFP-based assay, this defect results in a low anion transport capacity and therefore in a low quenching rate (QR). Treatment for a prolonged time (e.g. 24 hours) with a corrector determines an improvement in protein maturation with an increase in the number of CFTR channels present in the membrane and therefore an increase in the flux of iodide and QR. In a first phase, the authors screened about 200 heterocyclic molecules with various nitrogenated tricyclic scaffolds. Conditions previously described have been used for screening (Sondo E, et al. Am J Physiol. 2011, 301, […]-[…]) and reported herein in the Materials and Methods section. A threshold equal to the average value plus three times the standard deviation of the QR of wells without compounds (only DMSO in the culture medium) was used as a criterion for the selection of active compounds.
For `Cc1cccc(Cn2c(C(=O)O)cc3c2-c2[nH]c(=O)c(S(=O)(=O)c4ccccc4)cc2CC3)c1` [PP090, 7-(Benzenesulfonyl)-1-[(3-methylphenyl)methyl]-8-oxo-4,5,8,9-tetrahydro-1H-pyrrolo[3,2-h]quinoline-2-carboxylic acid], the “AI (%) additivity index” value is on record as 36%.

With `CCOC(=O)c1cc2c(n1Cc1ccc(C)c(C)c1)-c1[nH]c(=O)c(S(=O)(=O)c3ccccc3)cc1CC2` [PP025, Ethyl 7-(benzenesulfonyl)-1-[(3,4-dimethylphenyl)methyl]-8-oxo-4,5,8,9-tetrahydro-1H-pyrrolo[3,2-h]quinoline-2-carboxylate], the “AI (%) additivity index” value is recorded as 178%.

For the molecule `Cc1cccc(Cn2c(C(=O)NC(C)C)c(Br)c3c2-c2[nH]c(=O)c(S(=O)(=O)c4ccccc4)cc2CC3)c1` [PP091, 7-(Benzenesulfonyl)-3-bromo-1-[(3-methylphenyl)methyl]-8-oxo-N-(propan-2-yl)-4,5,8,9-tetrahydro-1H-pyrrolo[3,2-h]quinoline-2-carboxamide], the “AI (%) additivity index” value was found to be 208%.

Turning to `CCOC(=O)c1cc2c(n1Cc1ccc(F)cc1)-c1[nH]c(=O)c(S(=O)(=O)c3ccccc3)cc1CC2` [PP072, Ethyl 7-(benzenesulfonyl)-1-[(4-fluorophenyl)methyl]-8-oxo-4,5,8,9-tetrahydro-1H-pyrrolo[3,2-h]quinoline-2-carboxylate], the “AI (%) additivity index” value is 420%.

On to `CCOC(=O)c1cc2c(n1Cc1ccc(Br)cc1)-c1[nH]c(=O)c(S(=O)(=O)c3ccccc3)cc1CC2` [PP060, Ethyl 7-(benzenesulfonyl)-1-[(4-bromophenyl)methyl]-8-oxo-4,5,8,9-tetrahydro-1H-pyrrolo[3,2-h]quinoline-2-carboxylate], for which the “AI (%) additivity index” value was determined as 148%.

For `Cc1cccc(Cn2c(C(=O)O)c(Br)c3c2-c2[nH]c(=O)c(S(=O)(=O)c4ccccc4)cc2CC3)c1` [PP081, 7-(Benzenesulfonyl)-3-bromo-1-[(3-methylphenyl)methyl]-8-oxo-4,5,8,9-tetrahydro-1H-pyrrolo[3,2-h]quinoline-2-carboxylic acid], the “AI (%) additivity index” value worked out at 20%.

In the case of `Cc1ccc(Cn2c(C(=O)OC(C)C)cc3c2-c2[nH]c(=O)c(S(=O)(=O)c4ccccc4)cc2CC3)cc1` [PP022, Propan-2-yl 7-(benzenesulfonyl)-1-[(4-methylphenyl)methyl]-8-oxo-4,5,8,9-tetrahydro-1H-pyrrolo[3,2-h]quinoline-2-carboxylate], the “AI (%) additivity index” value was 279%.

For the molecule `Cc1cccc(Cn2c(C(=O)OC(C)C)c(Br)c3c2-c2[nH]c(=O)c(S(=O)(=O)c4ccccc4)cc2CC3)c1` [PP104, Propan-2-yl 7-(benzenesulfonyl)-3-bromo-1-[(3-methylphenyl)methyl]-8-oxo-4,5,8,9-tetrahydro-1H-pyrrolo[3,2-h]quinoline-2-carboxylate], the “AI (%) additivity index” value is reported as 374%.

For `CCOC(=O)c1cc2c(n1Cc1ccc(C)cc1C)-c1[nH]c(=O)c(S(=O)(=O)c3ccccc3)cc1CC2` [PP021, Ethyl 7-(benzenesulfonyl)-1-[(2,4-dimethylphenyl)methyl]-8-oxo-4,5,8,9-tetrahydro-1H-pyrrolo[3,2-h]quinoline-2-carboxylate], the “AI (%) additivity index” value was 40%.

As for `CCOC(=O)c1cc2c(n1Cc1cccc(C)c1)-c1[nH]c(=O)c(S(=O)(=O)c3ccccc3)cc1CC2` [PP016, Ethyl 1-(3-methylbenzyl)-8-oxo-7-(phenylsulfonyl)-4,5,8,9-tetrahydro-1H-pyrrolo[3,2-h]quinoline-2-carboxylate], the “AI (%) additivity index” value is 42%.

Turning to `CCOC(=O)c1cc2c(n1CC1CC1)-c1[nH]c(=O)c(S(=O)(=O)c3ccccc3)cc1CC2` [PP064, Ethyl 7-(benzenesulfonyl)-1-(cyclopropylmethyl)-8-oxo-4,5,8,9-tetrahydro-1H-pyrrolo[3,2-h]quinoline-2-carboxylate], the “AI (%) additivity index” value worked out at 235%.

Consider `CCOC(=O)c1c(Br)c2c(n1Cc1c(C)cc(C)cc1C)-c1[nH]c(=O)c(S(=O)(=O)c3ccccc3)cc1CC2` [PP069, Ethyl 7-(benzenesulfonyl)-3-bromo-8-oxo-1-[(2,4,6-trimethylphenyl)methyl]-4,5,8,9-tetrahydro-1H-pyrrolo[3,2-h]quinoline-2-carboxylate], for which the “AI (%) additivity index” value was found to be 175%.

`CCOC(=O)c1cc2c(n1Cc1ccc(Cl)cc1)-c1[nH]c(=O)c(S(=O)(=O)c3ccccc3)cc1CC2` [PP017, Ethyl 1-(4-chlorobenzyl)-8-oxo-7-(phenylsulfonyl)-4,5,8,9-tetrahydro-1H-pyrrolo[3,2-h]quinoline-2-carboxylate]: the “AI (%) additivity index” value is on record as 203%.

Turning to `Cc1cccc(Cn2c(C(N)=O)cc3c2-c2[nH]c(=O)c(S(=O)(=O)c4ccccc4)cc2CC3)c1` [PP082, 7-(Benzenesulfonyl)-1-[(3-methylphenyl)methyl]-8-oxo-4,5,8,9-tetrahydro-1H-pyrrolo[3,2-h]quinoline-2-carboxamide], the “AI (%) additivity index” value is 31%.

`COC(=O)c1c(Br)c2c(n1Cc1ccccc1C)-c1[nH]c(=O)c(S(=O)(=O)c3ccccc3)cc1CC2` [PP032, Methyl 3-bromo-1-(2-methylbenzyl)-8-oxo-7-(phenylsulfonyl)-4,5,8,9-tetrahydro-1H-pyrrolo[3,2-h]quinoline-2-carboxylate]: the “AI (%) additivity index” value amounted to 133%.

The test is the same for the next values; noted with them: Table 2; compound at 10 μM plus VX-809; (QRTOT − QRVX)/QRVX.
Regarding `CCOC(=O)c1c(Br)c2c(n1Cc1ccc(C)cc1)-c1[nH]c(=O)c(S(=O)(=O)c3ccccc3)cc1CCC2` [PP056, Ethyl 8-(benzenesulfonyl)-3-bromo-1-[(4-methylphenyl)methyl]-9-oxo-1,4,5,6,9,10-hexahydropyrrolo[3′,2′:6,7]cyclohepta[1,2-b]pyridine-2-carboxylate], the AI additivity index worked out at 60%.

The same test, now with this note: Table 3; compound at 10 μM plus VX-809; (QRTOT-QRVX)/QRVX.
Regarding `CCOC(=O)c1c(Br)c2c(n1Cc1cccc(C)c1)-c1nc(N)ncc1CC2` [SVQ4, Ethyl 2-amino-7-bromo-9-[(3-methylphenyl)methyl]-6,9-dihydro-5H-pyrrolo[3,2-h]quinazoline-8-carboxylate], the AI additivity index was 4%.

Staying with this test, now noted: Table 4; compound at 10 μM plus VX-809; (QRTOT − QRVX)/QRVX.
For `CCOC(=O)c1ccc2n1CCCc1cc(S(=O)(=O)c3ccccc3)c(=O)[nH]c1-2` [QZN5, Ethyl 3-(benzenesulfonyl)-2-oxo-1,5,6,7-tetrahydro-2H-pyrido[2,3-c]pyrrolo[1,2-a]azepine-9-carboxylate], the “AI (%) additivity index” value came to 19%.

For the molecule `CC(C)OC(=O)c1ccc2n1CCCc1cc(S(=O)(=O)c3ccccc3)c(=O)[nH]c1-2` [QZN13, Propan-2-yl 3-(benzenesulfonyl)-2-oxo-1,5,6,7-tetrahydro-2H-pyrido[2,3-c]pyrrolo[1,2-a]azepine-9-carboxylate], the “AI (%) additivity index” value stood at 8%.

Staying with this test, now noted: Table 6; compound at 10 μM plus VX-809; (QRTOT-QRVX)/QRVX.
Consider `CCOC(=O)c1c2c(nn1Cc1ccc(C)c(C)c1)-c1[nH]c(=O)c(S(=O)(=O)c3ccccc3)cc1CC2` [PZ8, Ethyl 7-(benzenesulfonyl)-2-[(3,4-dimethylphenyl)methyl]-8-oxo-4,5,8,9-tetrahydro-2H-pyrazolo[4,3-h]quinoline-3-carboxylate], for which the “AI (%) additivity index” value is on record as 21%.

As for `CCOC(=O)c1nn(Cc2ccc(Br)cc2)c2c1CCc1cc(S(=O)(=O)c3ccccc3)c(=O)[nH]c1-2` [PZ5, Ethyl 7-(benzenesulfonyl)-1-[(4-bromophenyl)methyl]-8-oxo-4,5,8,9-tetrahydro-1H-pyrazolo[4,3-h]quinoline-3-carboxylate], the “AI (%) additivity index” value is listed as 64%.

Still in this test, the particulars now being: relative to the analogue.
Turning to `CCOC(=O)c1c(Br)c2c(n1Cc1ccc(C)cc1)-c1[nH]c(=O)c(S(=O)(=O)c3ccccc3)cc1CCC2` [PP056, Ethyl 8-(benzenesulfonyl)-3-bromo-1-[(4-methylphenyl)methyl]-9-oxo-1,4,5,6,9,10-hexahydropyrrolo[3′,2′:6,7]cyclohepta[1,2-b]pyridine-2-carboxylate], the “structure-activity comparison of corrector potency/activity” value was “more potent than the non-halogenated analogues”.
